How the values were obtained:
[1] = Dissociation constant, pKa of the compound; assay type: physicochemical
[2] = molecular target: T1, Indoleamine 2,3-dioxygenase 1 (Homo sapiens, UniProt P14902); conditions: at 200 µM
Target sequence in this assay (P14902 whole entry, looked up): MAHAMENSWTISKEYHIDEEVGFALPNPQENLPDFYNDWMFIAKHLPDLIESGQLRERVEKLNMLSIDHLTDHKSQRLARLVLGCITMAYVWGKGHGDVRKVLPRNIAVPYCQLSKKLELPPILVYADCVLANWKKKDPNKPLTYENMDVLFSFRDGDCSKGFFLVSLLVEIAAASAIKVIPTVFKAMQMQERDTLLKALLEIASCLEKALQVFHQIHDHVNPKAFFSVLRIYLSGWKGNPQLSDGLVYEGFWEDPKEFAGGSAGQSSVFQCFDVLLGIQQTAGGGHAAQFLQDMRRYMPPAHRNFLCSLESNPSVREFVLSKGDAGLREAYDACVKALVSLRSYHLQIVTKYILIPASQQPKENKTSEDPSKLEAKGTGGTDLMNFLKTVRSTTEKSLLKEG
Description: Inhibition of His-tagged recombinant human IDO1 expressed in Escherichia coli using tryptophan as substrate at 200 uM by spectrophotometric analysis

[3] = molecular target: T1, Indoleamine 2,3-dioxygenase 1; experiment: Inhibition of His-tagged recombinant human IDO1 expressed in Escherichia coli using tryptophan as substrate by Ehrlich's method
Target sequence in this assay (P14902 whole entry): as the sequence (P14902 whole entry, looked up) above

[4] = molecular target: T1, Indoleamine 2,3-dioxygenase 1; experiment: Inhibition of His-tagged recombinant human IDO1 expressed in Escherichia coli using tryptophan as substrate by spectrophotometric analysis
Target sequence in this assay (P14902 whole entry): as the sequence (P14902 whole entry, looked up) above

[5] = molecular target: T1, Indoleamine 2,3-dioxygenase 1; experiment: Inhibition of IDO1
Target sequence in this assay (P14902 whole entry): as the sequence (P14902 whole entry, looked up) above

[6] = molecular target: T1, Indoleamine 2,3-dioxygenase 1; experiment: Inhibition of His-tagged recombinant human IDO1 expressed in Escherichia coli using tryptophan as substrate at 100 uM by spectrophotometric analysis
Target sequence in this assay (P14902 whole entry, looked up): as above

[7] = molecular target: T1, Indoleamine 2,3-dioxygenase 1; experiment: Inhibition of His-tagged recombinant human IDO1 expressed in Escherichia coli using tryptophan as substrate by HPLC analysis
Target sequence in this assay (P14902 whole entry): as the sequence (P14902 whole entry, looked up) above

Row | SMILES | inhibition [2] [%] | other results
1 | CSC(=N)N | – | pKa [1]: 9.83
2 | CN1CCN(C(=O)c2nccnc2C(=O)O)CC1 | 0 | –
3 | N/C(=N\OS(=O)(=O)c1ccc(Cl)cc1)c1ccc(C(F)(F)F)cc1 | 0 | –
4 | N=C(NOC(=O)c1cc2ccccc2oc1=O)c1ccc(Oc2ccc(C(F)(F)F)cc2[N+](=O)[O-])cc1 | – | IC50 [3]: 20 µM
5 | COC(=O)c1cc2ccccc2cc1N | – | IC50 [4]: 460 µM
6 | O=C(O)c1cc2ccccc2cc1O | – | IC50 [4]: 1000 µM
7 | Cc1[nH]ccc2c1[nH]c1cc(=O)ccc12 [HARMOL] | – | IC50 [5]: 2000 µM
8 | Nc1cc2ccccc2cc1CO | – | IC50 [4]: 190 µM
9 | O=c1[nH]nc2n1-c1ccccc1SC2 | 0 | –
10 | S=C1N2CCN=C2SC2=NCCN12 | 0 | –
11 | Nc1cc2ccccc2cc1C(=O)O | – | IC50 [4]: 15 µM; inhibition [6]: 74%
12 | O=c1nc2sccn2c2ncccc12 | 0 | –
13 | c1ccc2c(c1)[nH]c1cnccc12 [NORHARMANE] | – | IC50 [4]: 90 µM
14 | Nc1ccc2c(c1)N1CCN=C1S2 | 70 | IC50 [7]: 50 µM
15 | CCOC(=O)N1CCN(CC(O)Cn2c(=O)c3c(ncn3C)n(C)c2=O)CC1 (stereo not given) | 0 | –
16 | O[C@@H](CNCCNc1nccc(C(F)(F)F)n1)CSc1ccc(F)cc1 | 0 | –
17 | Cc1nnsc1C(=O)O/N=C(/N)COc1ccc(C2SCCS2)cc1 | 70 | IC50 [3]: 50 µM
18 | OC1(c2ccc(Cl)cc2)CCN(Cn2nnc3ccccc32)CC1 | 0 | –
19 | Sc1nnc2nnc3ccccc3n12 | 0 | –
20 | NC(=NOC(=O)c1ccccc1Cl)c1cccc(CS(=O)(=O)c2ccc(Cl)cc2)c1 | – | IC50 [3]: 60 µM
21 | CN(C)CCCNc1cccc(Cl)c1C#N | 0 | –
22 | Cn1c(S)nnc1-c1ccc(Cl)cc1 | 0 | –
23 | Cc1cc2nnc(/C(N)=N/O)c(C)n2n1 | 0 | –

More lines, main results first:

Row | inhibition [2] [%] | SMILES | other results
24 | 70 | N/C(=N/OC(=O)c1cc2ccccc2oc1=O)c1ccc(Oc2ccc(C(F)(F)F)cc2[N+](=O)[O-])cc1 | –
25 | 0 | N/C(CS(=O)(=O)c1ccccc1)=N\O | –
26 | 0 | O=c1c2ccccc2nc2ccccn12 | –
27 | 70 | N/C(=N\OC(=O)c1ccccc1Cl)c1cccc(CS(=O)(=O)c2ccc(Cl)cc2)c1 | –
